Measurements from patent publication US20250326744A1, “PIPERAZINE DERIVATIVE OR SALT THEREOF, AND PHARMACEUTICAL COMPOSITION” (priority 2022, published 2025).
Counter-ions that a name gives are not always drawn.

Columns and labels:
S-3769 strain = assay: Combinational effect with antibacterial agent against Pseudomonas aeruginosa (Test Examples 2 and 4): S-3769 strain with AMK or GM at 1/4 MIC, EC99; type: cell-based; details: S-3769 strain, Test Example 4; for EC99, combinational effect with AMK, S-3769 strain: combined with AMK at 1/4 MIC; for EC99, combinational effect with GM, S-3769 strain: combined with GM at 1/4 MIC
Method: (§1) The combinational effect of the test compound with the antibacterial agent against Pseudomonas aeruginosa was evaluated.
The […] was used for evaluating the inhibitory ability against MexXY-OprM. AMK or GM was used as the antibacterial agent used in combination.
The S-3769 strain is a clinically isolated strain collected from a domestic medical institution, and is a strain in which the expression level of MexY is accelerated.
(§2) AMK and GM are aminoglycoside-based antibacterial agents, and are drugs that are not discharged outside the bacteria by MexB but are discharged outside the bacteria by MexY For the culture of each Pseudomonas aeruginosa strain, a 96-well plate (amount of culture medium per well: 100 μL) was used, and cation-adjusted Mueller Hinton broth (CAMHB) was used. The inoculation amount of the bacteria was set to 10^4 to 5 CFU/well.
(§3) The mexB (PA) strain and the S-3769 strain were cultured for 16 to 20 hours in a culture medium to which each antibacterial agent and test compounds at various concentrations (0 to 800 μM) were added, and the proliferation of the bacterial strains was evaluated by optical turbidity at 595 nm (OD595). The concentration of the antibacterial agent in the culture medium was set to ¼ MIC.
(§4) The proliferation of bacteria in a case where the test compound and the antibacterial agent were not added was measured, and compared with the proliferation of bacteria in a case where the test compound in a case where the antibacterial agent was added at the concentration of ¼ MIC was contained, and the lowest concentration of the test compound at which the proliferation was inhibited by 99% or more was defined as the drug efflux pump inhibitory ability of the test compound as 99% inhibitory effect concentration (EC99).
(§5) The effect of suppressing the proliferation of each test compound in combination with an antibacterial agent at ¼ MIC for mexB (PA) or the S-3769 strain was evaluated as follows according to the value of EC99. • S: EC99≤12.5 μM • A: 12.5 μM<EC99≤25 μM • B: 25 μM<EC99≤100 μM • C: 100 μM<EC99
(§6) The combinational effect of the test compound with the antibacterial agent against Pseudomonas aeruginosa was evaluated in the same manner as in Test Example 2.

mexB (PA) strain = assay: Combinational effect with antibacterial agent against Pseudomonas aeruginosa (Test Examples 2 and 4): mexB (PA) strain with LVFX, TC or AZT at 1/4 MIC, EC99; type: cell-based; details: for EC99, combinational effect with AZT, mexB (PA) / EC99, combinational effect with LVFX, mexB (PA) / EC99, combinational effect with TC, mexB (PA): mexB (PA) strain, Test Example 4; for EC99, combinational effect with AZT, mexB (PA) / EC99, mexB (PA), AZT: combined with AZT at 1/4 MIC; for EC99, combinational effect with LVFX, mexB (PA) / EC99, mexB (PA), LVFX: combined with LVFX at 1/4 MIC
Method: as §1
For the evaluation of the inhibitory ability against MexAB-OprM, a mutant strain of Pseudomonas aeruginosa in which MexAB-OprM was expressed as a main drug efflux pump (hereinafter, referred to as a “mexB (PA) strain”) was used. LVFX, TC, or AZT was used as the antibacterial agent used in combination.
The mexB (PA) strain is a strain produced by deleting the genes of MexCD-OprJ, MexEF-OprN, and MexXY in the drug efflux pump of Pseudomonas aeruginosa described in FEMS Microbiology Letters, 2001, Vol. 202, pp. 139 to 143. In the mexB (PA) strain, an expression level of MexB as a drug efflux pump is accelerated.
TC is a tetracycline-based antibacterial agent and is a drug that is discharged outside the bacteria by MexB. AZT is a monobactam-based antibacterial agent and is a drug that is discharged outside the bacteria by MexB.
as §2, §3, §4, §5, §6

[1] = Table 52, Test Example 2, 16 to 20 hours culture, OD595

SMILES	EC99, mexB (PA), AZT (mexB (PA) strain; [1])	EC99, mexB (PA), LVFX (mexB (PA) strain; [1])	other results
CCOc1cccc(F)c1CN1CCN(C(=O)[C@H](N)C2CCN(CCc3ccc(O)cc3-c3ccccc3)CC2)CC1 [Example 625, Hydrochloride of (R)-2-amino-1-(4-(2-ethoxy-6-fluorobenzyl)piperazin-1-yl)-2-(1-(2-(5-hydroxy-[1,1-biphenyl]-2-yl)ethyl)piperidin-4-yl)ethan-1-one]			EC99, combinational effect with AMK, S-3769 strain (S-3769 strain): A (12.5 μM<EC99≤25 μM); EC99, combinational effect with GM, S-3769 strain (S-3769 strain): A (12.5 μM<EC99≤25 μM); EC99, combinational effect with AZT, mexB (PA) (mexB (PA) strain): C (100 μM<EC99); EC99, combinational effect with LVFX, mexB (PA) (mexB (PA) strain): C (100 μM<EC99); EC99, combinational effect with TC, mexB (PA) (mexB (PA) strain; combined with TC at 1/4 MIC): C (100 μM<EC99)
CSc1ccccc1CN1CCN(C(=O)[C@H](N)C2CCN(CCc3cscc3-c3ccccc3)CC2)CC1 [Example 539, Hydrobromide of (R)-2-amino-1-(4-(2-(methylthio)benzyl)piperazin-1-yl)-2-(1-(2-(4-phenylthiophen-3-yl)ethyl)piperidin-4-yl)ethan-1-one]			EC99, combinational effect with AMK, S-3769 strain (S-3769 strain): B (25 μM<EC99≤100 μM); EC99, combinational effect with GM, S-3769 strain (S-3769 strain): B (25 μM<EC99≤100 μM); EC99, combinational effect with AZT, mexB (PA) (mexB (PA) strain): B (25 μM<EC99≤100 μM); EC99, combinational effect with LVFX, mexB (PA) (mexB (PA) strain): B (25 μM<EC99≤100 μM); EC99, combinational effect with TC, mexB (PA) (mexB (PA) strain; combined with TC at 1/4 MIC): B (25 μM<EC99≤100 μM)
CCOc1cccc(F)c1CN1CCN(C(=O)[C@H](N)C2CCN(CCc3cc(Cl)ccc3-c3cncs3)CC2)CC1 [Example 504, Hydrobromide of (R)-2-amino-2-(1-(5-chloro-2-(thiazol-5-yl)phenethyl)piperidin-4-yl)-1-(4-(2-ethoxy-6-fluorobenzyl)piperazin-1-yl)ethan-1-one]			EC99, combinational effect with AMK, S-3769 strain (S-3769 strain): A (12.5 μM<EC99≤25 μM); EC99, combinational effect with GM, S-3769 strain (S-3769 strain): A (12.5 μM<EC99≤25 μM); EC99, combinational effect with AZT, mexB (PA) (mexB (PA) strain): B (25 μM<EC99≤100 μM); EC99, combinational effect with LVFX, mexB (PA) (mexB (PA) strain): B (25 μM<EC99≤100 μM); EC99, combinational effect with TC, mexB (PA) (mexB (PA) strain; combined with TC at 1/4 MIC): B (25 μM<EC99≤100 μM)
N[C@@H](C(=O)N1CCN(Cc2c(O)cccc2C(F)(F)F)CC1)C1CCN(CCc2cc(Cl)ccc2-c2ccccc2)CC1 [Example 588, Hydrochloride of (R)-2-amino-2-(1-(2-(4-chloro-[1,1-biphenyl]-2-yl)ethyl)piperidin-4-yl)-1-(4-(2-hydroxy-6-(trifluoromethyl)benzyl)piperazin-1-yl) ethan-1-one]			EC99, combinational effect with AMK, S-3769 strain (S-3769 strain): A (12.5 μM<EC99≤25 μM); EC99, combinational effect with GM, S-3769 strain (S-3769 strain): A (12.5 μM<EC99≤25 μM); EC99, combinational effect with AZT, mexB (PA) (mexB (PA) strain): B (25 μM<EC99≤100 μM); EC99, combinational effect with LVFX, mexB (PA) (mexB (PA) strain): A (12.5 μM<EC99≤25 μM); EC99, combinational effect with TC, mexB (PA) (mexB (PA) strain; combined with TC at 1/4 MIC): A (12.5 μM<EC99≤25 μM)
COc1cccc(F)c1CN1CCN(C(=O)CN2CCN(CCc3ccccc3)CC2)CC1 [Example 215, hydrochloride of 1-(4-(2-fluoro-6-methoxybenzyl)piperazin-1-yl)-2-(4-phenethylpiperazin-1-yl)ethan-1-one]	A (12.5 μM<EC99≤25 μM)	S (EC99≤12.5 μM)	
COc1ccc(F)c(F)c1CN1CCN(C(=O)CN2CCN(CCc3ccccc3)CC2)CC1 [Example 247, Hydrochloride of 1-(4-(2,3-difluoro-6-methoxybenzyl)piperazin-1-yl)-2-(4-phenethylpiperazin-1-yl)ethan-1-one]	A (12.5 μM<EC99≤25 μM)	B (25 μM<EC99≤100 μM)	
COc1ccccc1CN1CCN(C(=O)C(C)N2CCN(CCc3ccccc3)CC2)CC1 (centres unmarked) [Example 261, hydrochloride of 1-(4-(2-methoxybenzyl)piperazin-1-yl)-2-(4-phenethylpiperazin-1-yl)propan-1-one]	A (12.5 μM<EC99≤25 μM)	B (25 μM<EC99≤100 μM)	
O=C(CN1CCN(CCc2ccccc2)CC1)N1CCN(Cc2ccccc2OC(F)F)CC1 [Example 200, hydrochloride of 1-(4-(2-(difluoromethoxy)benzyl)piperazin-1-yl)-2-(4-phenethylpiperazin-1-yl)ethan-1-one]	B (25 μM<EC99≤100 μM)	B (25 μM<EC99≤100 μM)	
CCOc1cccc(F)c1CN1CCN(C(=O)[C@H](N)C2CCN(CCc3ccccc3)CC2)CC1 [Example 114, Hydrochloride of (R)-2-amino-1-(4-(2-ethoxy-6-fluorobenzyl)piperazin-1-yl)-2-(1-phenethylpiperidin-4-yl)ethan-1-one]	C (100 μM<EC99)	C (100 μM<EC99)	
COc1ccccc1CN1CCN(C(=O)CN2CCN(CCC3CCCCC3)CC2)CC1 [Example 275, 2-(4-(2-Cyclohexylethyl)piperazin-1-yl)-1-(4-(2-methoxybenzyl)piperazin-1-yl) ethan-1-one and hydrochloride thereof]	S (EC99≤12.5 μM)	A (12.5 μM<EC99≤25 μM)	
COc1ccccc1CN1CCN(C(=O)CN2CCC(C#N)(CCc3ccccc3)CC2)CC1 [Example 401, Hydrochloride of 1-(2-(4-(2-methoxybenzyl)piperazin-1-yl)-2-oxoethyl)-4-phenethylpiperidine-4-carbonitrile]	B (25 μM<EC99≤100 μM)	C (100 μM<EC99)	
COc1ccccc1CN1CCN(C(=O)[C@H](N)C2CCN(CCc3ccc(Cl)s3)CC2)CC1 [Example 134, Hydrochloride of (R)-2-amino-2-(1-(2-(5-chlorothiophen-2-yl)ethyl)piperidin-4-yl)-1-(4-(2-methoxybenzyl)piperazin-1-yl) ethan-1-one]	C (100 μM<EC99)	C (100 μM<EC99)	
COc1ccccc1CN1CCN(C(=O)[C@H](N)C2CCN(CCc3cccc(Cl)c3)CC2)CC1 [Example 140, hydrochloride of (R)-2-amino-2-(1-(3-chlorophenethyl)piperidin-4-yl)-1-(4-(2-methoxybenzyl)piperazin-1-yl)ethan-1-one]	C (100 μM<EC99)	C (100 μM<EC99)	
COc1ccsc1CN1CCN(C(=O)CN2CCN(CCc3ccccc3)CC2)CC1 [Example 249, Hydrochloride of 1-(4-((3-methoxythiophen-2-yl)methyl)piperazin-1-yl)-2-(4-phenethylpiperazin-1-yl)ethan-1-one]	C (100 μM<EC99)	C (100 μM<EC99)	
COc1ccccc1CN1CCN(C(=O)CN2CCC(N(C)Cc3ccccc3)CC2)CC1 [Example 420, hydrochloride of 2-(4-(benzyl(methyl)amino)piperidin-1-yl)-1-(4-(2-methoxybenzyl)piperazin-1-yl)ethan-1-one]	C (100 μM<EC99)	C (100 μM<EC99)	EC99, mexB (PA), TC (mexB (PA) strain; Table 52, Test Example 2, combined with TC at 1/4 MIC, 16 to 20 hours culture, OD595): C (100 μM<EC99)
CCOc1ccccc1CN1CCN(C(=O)CN2CCN(CCc3ccccc3)CC2)CC1 [Example 220, Hydrochloride of 1-(4-(2-ethoxybenzyl)piperazin-1-yl)-2-(4-phenethylpiperazin-1-yl) ethan-1-one]		S (EC99≤12.5 μM)	
